Reference: patent publication US10507227B2, “Cationic antimicrobial peptides” (The Hospital for Sick Children, priority 2014, dated 2019)
≈ marks a conversion by molar mass, not a printed value. Blank lines part the entries; values can stand above or below the compound they belong to.

Tests used:
[1] = tested on: clinically isolated P. aeruginosa mucoid strains; assay: microbe, parasite or virus in culture; conditions: Pseudomonas aeruginosa
Protocol: (§1) The clinically isolated P. aeruginosa mucoid strains that were used in these experiments are described in Table 1.
(§2) Methods: Prep Work—3 Days Culture the Clinical Mucoid P. aeruginosa Strains Isolated from CF Patients • 1. Freshly subculture the glycerol stock of the strain (stored at −80° C.) by streaking onto a blood agar (3˜4 streaks). Incubate the blood agar plate at 37° C. for 24 hr. The consistency of the mucoid phenotype can be improved by further subculturing (e.g., a total of 3 times, one/day). • 2. The following day, pick a few colonies and streak them onto a fresh blood agar. Note: Every time the cells are cultured using the stock strains (stored at −80° C.), they should be subcultured 3 times in total, and the last blood agar plate is then good for about one week. In the following week, the strains can be re-subcultured from the last agar plate to grow fresh colonies—this needs only to be done once (no need to do it 3 times). If the mucoid phenotype is lost, the glycerol stocks (−80° C.) should be used, and subcultured 3 times. Biofilm Assay—Day 1 Grow Overnight Cell Culture • 1. Inoculate freshly cultured cells (see prep work) in 10 mL TSB, and grow overnight at 37° C. on a shaker. […] Biofilm Assay—Day 2 Biofilm Set-up • 1. Make 0.5 McFarland for each strain/organism (add ˜100 μL O/N culture to 2 mL 50% TSB): • 0.5 McFarland=10^8 CFU/mL. • To calibrate a colourimeter/turbidity meter: • Positive blank: place a solid marker in the holder; turn the left knob to adjust to zero. • Negative blank: use a glass tube containing 50% TSB (1:1 TSB/H2O); adjust the right knob to 100% T. • Non-mucoid strains should be read in the lower ‘red zone’ on a colorimeter/turbidity meter. • Mucoid strains should be a bit heavier, and read in the mid ‘red zone’. • 2. Make bacterial inoculums: to a 50 mL falcon tube, add 300 μL of 0.5 McFarland to 19.7 mL of TSB. • 3. Mix the tube gently by inverting. • 4. In the biosafety fume hood or beside the flame: • Label a 96-well plate: strain and time. • Pour inoculum into a reservoir. • Using the multi-channel pipet, add 150 μL of inoculum into each well, leave the last column empty (last column=negative control, no cells). • Carefully place a peg lid onto the plate, match the cut corners. • 5. Place the plate on a shaker in 37° C. incubator (requires ≥3 h). Checking Biofilm Plate Growth • 1. Check plates periodically using a plate-reader to determine OD readings: • At OD650, aim for ˜0.045-0.050. • Depending on the strain, require 3-28 h to grow. […] Loading Antibiotic Plates • 1. Place the peg lid (containing biofilm growth) of the susceptibility plate into a pre-made 96-well antibiotic plate (see protocol from Day 1; see FIG. 1). Incubate at 37° C. for 24 h. * This will be referred to the planktonic growth plate, which measures the planktonic susceptibility in the biofilm assay, or MICs. * • 2. Place the lid of 96-well antibiotic plate onto the previous susceptibility plate, and keep in the fridge for reference until the experiment is completed. • 3. Proceed to perform inoculum check (see below) Inoculum Check • 1. Purity check: • Take a loopful of bacteria culture from any well of the susceptibility plate. • Spread onto half of a blood agar plate. • Place in the incubator at 37° C. for 24 h. • 2. Inoculum check: • In sterile Eppendorf tubes or liver vials (need 4 per strain), prepare the following dilutions: • a. 10^2: […] from any well of the susceptibility plate. • b. 10^3: 900 μL of H2O and 100 μL of mixture from Step (a). • c. 10^4: 900 μL of H2O and 100 μL of mixture from Step (b). • d. 10^5: 900 μL of H2O and 100 μL of mixture from Step (c). • Split blood agar plates into quadrants: two for 10^4 and two for 10^5. • Take 50 μL from Step (c) or Step (d) and place onto blood agar plates. • Let dry for about 30 min in the hood with the lid closed, and then incubate upside-down at 37° C. for 18˜24 h.

[2] = tested on: clinically isolated P. aeruginosa mucoid strains (biofilm); assay: Biofilm antibacterial susceptibility assay, biofilm recovery plate (BICs); type: cell-based, Pseudomonas aeruginosa
Protocol: as §1, §2

[3] = tested on: clinical strains of P. aeruginosa; assay: microbe, parasite or virus in culture; type: cell-based, Pseudomonas aeruginosa; conditions: for MIC: Pseudomonas aeruginosa
Protocol: MICs (μg/ml, x-axis) for each compound are shown below each graph. […] The OD at 600 nm quantitates the extent of bacterial growth. Diamonds=L6K-F17; squares=tobramycin. Incubation: 37° C. for 19-24 hours.
Nine different clinical P. aeruginosa isolates were tested with a representative CAP, L-6KF17.

MIC ([1]; strain HSC 003B3-1, planktonic): ≤ 0.5 µg/mL | MIC ([1]; strain HSC 020B2-1, planktonic): 1 to 2 µg/mL (≈ 2.61 to 5.22 µM) | MIC ([1]; strain HSC 027B2-3, planktonic): 2 µg/mL (≈ 5.22 µM)
Structure (SMILES): C[C@@H](O)[C@H]1C(=O)N2C(C(=O)O)=C(S[C@@H]3CN[C@H](C(=O)N(C)C)C3)[C@H](C)[C@H]12 [Meropenem, meropenem]
BIC ([2]; strain HSC 003B3-1, biofilm): ≤0.5 µg/mL | BIC ([2]; strain HSC 020B2-1, biofilm): 2 µg/mL | BIC ([2]; strain HSC 027B2-3, biofilm): 4 µg/mL

Structure (SMILES): C[C@H](NC(=O)[C@H](C)NC(=O)[C@H](Cc1ccccc1)NC(=O)[C@H](C)NC(=O)[C@H](C)NC(=O)[C@H](Cc1c[nH]c2ccccc12)NC(=O)[C@H](C)NC(=O)[C@H](C)NC(=O)[C@H](Cc1ccccc1)NC(=O)[C@H](C)NC(=O)[C@H](C)NC(=O)[C@H](CCCCN)NC(=O)[C@H](CCCCN)NC(=O)[C@H](CCCCN)NC(=O)[C@H](CCCCN)NC(=O)[C@H](CCCCN)NC(=O)[C@@H](N)CCCCN)C(N)=O [L-6KF17]
MIC compared with tobramycin ([3]; nine clinical P. aeruginosa isolates): equal to or superior to tobramycin in most cases

MIC ([1]; strain HSC 003B3-1, planktonic): 2 to 8 µg/mL (≈ 4.28 to 17.1 µM) | MIC ([1]; strain HSC 020B2-1, planktonic): 32 to 64 µg/mL (≈ 68.4 to 137 µM) | MIC ([1]; strain HSC 027B2-3, planktonic): > 128 µg/mL | MIC ([1]; strain SMH 022B5-2, planktonic): ≤ 0.5 µg/mL | MIC ([1]; strain SMH 051B3-1, planktonic): ≤ 0.5 µg/mL | MIC ([1]; strain SMH 123E1-1, planktonic): ≤ 0.5 µg/mL | MIC ([3]; strain HSC 002B10-2): 1 µg/mL (≈ 2.14 µM) | MIC ([3]; strain HSC 004B1-3): 8 µg/mL (≈ 17.1 µM) | MIC ([3]; strain HSC 007E3-2): 8 µg/mL (≈ 17.1 µM) | MIC ([3]; strain HSC 035B7-1): > 32 µg/mL | MIC ([3]; strain SMH 064B15-2): 2 µg/mL (≈ 4.28 µM) | MIC ([3]; strain SMH 072B5-2): > 32 µg/mL | MIC ([3]; strain SMH 112B41): 2 µg/mL (≈ 4.28 µM) | MIC ([3]; strain SMH 130B12-1): 8 µg/mL (≈ 17.1 µM) | MIC ([3]; strain SMH 154B10-2): 16 µg/mL (≈ 34.2 µM)
Structure (SMILES): NC[C@H]1O[C@H](O[C@H]2[C@H](O)[C@@H](O[C@H]3O[C@H](CO)[C@@H](O)[C@H](N)[C@H]3O)[C@H](N)C[C@@H]2N)[C@H](N)C[C@@H]1O [Tobramycin, tobramycin]
BIC ([2]; strain HSC 003B3-1, biofilm): 8 to 64 µg/mL | BIC ([2]; strain HSC 020B2-1, biofilm): 128 µg/mL | BIC ([2]; strain HSC 027B2-3, biofilm): >128 µg/mL | BIC ([2]; strain SMH 022B5-2, biofilm): ≤0.5 µg/mL | BIC ([2]; strain SMH 051B3-1, biofilm): ≤0.5 µg/mL | BIC ([2]; strain SMH 123E1-1, biofilm): 0.5 to 1 µg/mL
